Columns and labels:
[1] = biological target: PDGFRA (PDGFR alpha) (Homo sapiens, UniProt P16234); assay: Biochemical kinase assay PDGFRA; conditions: cell free, read-out: inhibition of PDGFRA (PDGRFR alpha)
Method: (§1) Test system: cell free assays; test items: IS181; concentrations tested: 1 ng/ml-5000 μg/ml; Kinases: a) Cell free assays: EGFR (ErbB1); FLT1 (VEGFR1); JAK1; JAK3 MAP2K1 (MEK1); PDGFRA (PDGFR alpha); PRKCA (PKC alpha); b) cell based assay: JAK-STAT.

[2] = in vitro; conditions: human
Method: The cells were then incubated for 72 hours. Percentage cytotoxicity was determined using MTT assay.

[3] = tested on: Imiquimod (IMQ) induced psoriasis; assay: Imiquimod (IMQ) induced psoriasis model; format: in vivo, BALB/C mice
Method: The Experiment was carried out in Imiquimod (IMQ) induced psoriasis model in mice. […] […] There was a trend in animals treated with IS-181 through s.c. in ear thickness (life phase), punch biopsy, spleen weight and histopathology. […] Thus, […] In the view of this, it may be worth to explore the potency of the peptide for the diseases where TNFα playing central role in pathogenesis.

[4] = biological target: MAP2K1 (MEK1) (Homo sapiens, UniProt Q02750); assay: Biochemical kinase assay MAP2K1
Method: as §1

[5] = tested on: Human endothelial cells (EA.hy 926); assay: Inhibition of FBS stimulated endothelial cell proliferation (MTT); format: cell-based; conditions: for Absorbance (Mean ± SD) at 540 nm: EA.hy926, 10% FBS, 72 h
Method: Cell line: Human endothelial cells (EA.hy 926); test item: IS 181: treatment regimen: multiple additions (3)-72 hours; concentration range: 1 6 g/ml to 5000 6 g/ml (triplicate wells); sera condition: medium containing 10% FBS. […] The cells were then subjected to complete serum starvation. The cells were retreated with 10% FBS to stimulate cellular proliferation. […] Inhibition of FBS stimulated cell proliferation was measured using MTT assay. End point: percentage inhibition of FBS stimulated cell proliferation. Positive controls: anthralin; paclitaxel.

[6] = Cell viability (MTT assay) in PBMCs; format: cell-based, Human; conditions: human, PBMCs
Method: (§2) Cell Lines/Cells: Human Keratinocytes (HaCaT); Human melanoma (SK-MEL-28); Human PBMCs. Test Item: IS181 Treatment regimen: Single addition—24 h, ^#Multiple additions (3)−72 h; Concentration range: 1 ng/ml-2 mg/ml (triplicate wells); Sera Condition: […] Method of estimation: MTT assay. […] Positive control: Triton-X-100, Doxorubicin Hydrochloride.

[7] = tested on: Human PBMCs; assay: Cell viability (MTT assay) in PBMCs; format: cell-based; conditions: for IC50 value / cytotoxicity: PBMCs
Method: as §2

Sequence of PDGFRA (PDGFR alpha) (P16234 24-1089): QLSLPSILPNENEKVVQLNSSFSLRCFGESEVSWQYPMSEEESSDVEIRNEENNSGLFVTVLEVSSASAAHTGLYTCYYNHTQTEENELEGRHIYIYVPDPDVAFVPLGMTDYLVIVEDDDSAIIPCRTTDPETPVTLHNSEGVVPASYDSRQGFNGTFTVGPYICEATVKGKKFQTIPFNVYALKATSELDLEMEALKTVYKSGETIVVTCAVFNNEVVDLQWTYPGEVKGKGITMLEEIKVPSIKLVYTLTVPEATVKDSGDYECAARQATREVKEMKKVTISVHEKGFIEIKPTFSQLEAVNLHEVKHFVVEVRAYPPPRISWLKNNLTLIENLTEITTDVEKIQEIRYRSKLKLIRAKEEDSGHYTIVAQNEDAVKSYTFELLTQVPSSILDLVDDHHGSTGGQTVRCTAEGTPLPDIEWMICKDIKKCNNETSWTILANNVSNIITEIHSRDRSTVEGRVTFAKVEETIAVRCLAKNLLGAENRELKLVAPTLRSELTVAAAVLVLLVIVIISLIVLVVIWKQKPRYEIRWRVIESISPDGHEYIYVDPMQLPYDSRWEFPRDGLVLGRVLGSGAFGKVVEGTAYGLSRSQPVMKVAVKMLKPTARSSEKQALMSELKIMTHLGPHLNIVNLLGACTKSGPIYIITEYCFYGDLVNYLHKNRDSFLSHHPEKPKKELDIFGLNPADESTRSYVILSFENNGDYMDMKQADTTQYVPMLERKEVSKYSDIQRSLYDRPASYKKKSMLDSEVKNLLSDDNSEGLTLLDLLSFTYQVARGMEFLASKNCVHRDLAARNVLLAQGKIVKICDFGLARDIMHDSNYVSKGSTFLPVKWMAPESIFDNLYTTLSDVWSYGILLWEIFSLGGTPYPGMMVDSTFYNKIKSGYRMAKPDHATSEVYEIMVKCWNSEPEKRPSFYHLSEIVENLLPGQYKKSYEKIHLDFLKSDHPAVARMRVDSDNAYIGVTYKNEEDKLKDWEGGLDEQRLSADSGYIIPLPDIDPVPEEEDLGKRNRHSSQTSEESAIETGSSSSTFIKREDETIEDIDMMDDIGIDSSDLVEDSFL
Sequence of MAP2K1 (MEK1) (Q02750 whole entry): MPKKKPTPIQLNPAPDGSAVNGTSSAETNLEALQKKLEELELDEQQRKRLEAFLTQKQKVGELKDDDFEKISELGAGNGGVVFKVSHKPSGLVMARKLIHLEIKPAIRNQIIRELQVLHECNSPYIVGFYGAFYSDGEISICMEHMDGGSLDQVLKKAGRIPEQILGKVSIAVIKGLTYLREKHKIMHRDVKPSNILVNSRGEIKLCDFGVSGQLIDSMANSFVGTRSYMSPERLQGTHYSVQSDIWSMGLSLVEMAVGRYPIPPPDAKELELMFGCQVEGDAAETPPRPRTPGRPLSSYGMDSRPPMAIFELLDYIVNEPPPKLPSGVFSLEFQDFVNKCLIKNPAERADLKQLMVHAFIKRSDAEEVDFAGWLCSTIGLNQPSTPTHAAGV

H-WVQRVVEKFLK-OH [IS181, H-Trp-Val-Gln-Arg-Val-Val-Glu-Lys-Phe-Leu-Lys-OH]
inhibition at 50 µg/mL ([1]; 50 μg/ml): 8% | inhibition at 100 µg/mL ([1]; 100 μg/ml): -10% | inhibition at 250 µg/mL ([1]; 250 μg/ml): -26% | inhibition at 500 µg/mL ([1]; 500 μg/ml): -49% | inhibition at 1000 µg/mL ([1]; 1000 μg/ml): -81% | inhibition at 2000 µg/mL ([1]; 2000 μg/ml): -147% | cytotoxicity at 72 h, 5000 μg/ml ([2]; HaCaT keratinocyte cells): 96.1% | cytotoxicity at 72 h, 10 μg/ml ([2]; HaCaT keratinocytes): 16.7% | cytotoxicity at 72 h, 50 μg/ml ([2]; HaCaT keratinocytes): 17.8% | cytotoxicity at 72 h, 500 μg/ml ([2]; HaCaT keratinocytes): 26.9% | cytotoxicity at 72 h, 1000 μg/ml ([2]; HaCaT keratinocytes): 82.8% | cytotoxicity at 72 h, 2000 μg/ml ([2]; HaCaT keratinocytes): 75% | histopathology ear thickness ([3]; 0.3 mg/kg, s.c.): maximum reduction in ear thickness | hyperkeratosis ([3]; 1.2 mg/kg i.m. and i.v.): reduction in hyperkeratosis | reduction in IL-23 (ear homogenate) compared to disease control ([3]; BALB/C mice, 0.3 mg/kg): 62.35% | reduction in TNFα (ear homogenate) compared to disease control ([3]; BALB/C mice, 0.3 mg/kg s.c.): 24.98% | reduction in TNFα (ear homogenate) compared to disease control ([3]; BALB/C mice, 1.2 mg/kg i.m.): 21.28% | dorsal skin thickness ([3]; across the groups except 0.6 mg/kg s.c. and 1.2 mg/kg i.m.): mild reduction in dorsal skin thickness, however which was not significant | punch biopsy weight ([3]; across the groups except 1.2 mg/kg, i.m.): mild reduction in punch biopsy weight, however which was not significant | IL-17A (ear homogenate) ([3]; across the treated groups): No changes in IL-17A | clinical score ([3]; across the treated groups): No substantial changes in clinical score | erythema index ([3]; across the treated groups): No changes in erythema index | ear thickness (life phase) compared to disease control ([3]; s.c.): mild reduction in ear thickness | edema compared to disease control ([3]; s.c. (1.2, 0.6 and 0.3 mg/kg)): reduction in edema | inflammatory cells infiltration compared to disease control ([3]; s.c. (1.2, 0.6 and 0.3 mg/kg) and 1.2 mg/kg i.v.): reduction in inflammatory cells infiltration | Rete peg proliferation ([3]; s.c. (at 1.2, 0.6 and 0.3, mg/kg)): reduction in Rete peg proliferation | spleen weight ([3]; s.c. route, 1.2 mg/kg): maximum reduction in spleen weight, however which was not significant | hyperkeratosis ([3]; s.c., 0.3 mg/kg): maximum effect | inhibition of MAP2K1 (MEK1) ([4]; 10 μg/ml-5000 μg/ml): 23%-49% | inhibition at 50 µg/mL ([4]; cell free, 50 μg/ml): 49% | inhibition at 100 µg/mL ([4]; cell free, 100 μg/ml): 26% | inhibition at 250 µg/mL ([4]; cell free, 250 μg/ml): 30% | inhibition at 500 µg/mL ([4]; cell free, 500 μg/ml): 23% | inhibition at 1000 µg/mL ([4]; cell free, 1000 μg/ml): 13% | inhibition at 2000 µg/mL ([4]; cell free, 2000 μg/ml): -16% | inhibition at 5000 µg/mL ([4]; cell free, 5000 μg/ml): -81% | inhibition of FBS stimulated cell proliferation ([5]; EA.hy926, 5 μg/ml to 1000 μg/ml): significant inhibition | cytotoxic effects ([5]; EA.hy926, 2000 μg/ml to 5000 μg/ml): cytotoxic effects | Absorbance (Mean ± SD) at 540 nm ([5]; 1 μg/ml): 0.48 ± 0.006 | Absorbance (Mean ± SD) at 540 nm ([5]; 5 μg/ml): 0.45 ± 0.027 | Absorbance (Mean ± SD) at 540 nm ([5]; 10 μg/ml): 0.46 ± 0.012 | Absorbance (Mean ± SD) at 540 nm ([5]; 50 μg/ml): 0.41 ± 0.011 | Absorbance (Mean ± SD) at 540 nm ([5]; 100 μg/ml): 0.41 ± 0.012 | Absorbance (Mean ± SD) at 540 nm ([5]; 500 μg/ml): 0.33 ± 0.004 | Absorbance (Mean ± SD) at 540 nm ([5]; 1000 μg/ml): 0.22 ± 0.008 | Absorbance (Mean ± SD) at 540 nm ([5]; 2000 μg/ml): 0.09 ± 0.0003 | cytotoxicity at 24 h, 1000 μg/ml ([6]; human PBMCs, 24 h, 1000 μg/ml): 40.2% | cytotoxicity at 24 h, 2000 μg/ml ([6]; human PBMCs, 24 h, 2000 μg/ml): 53% | cytotoxicity at 72 h, 500 μg/ml ([6]; human PBMCs, 72 h, 500 μg/ml): 32.7% | cytotoxicity at 72 h, 1000 μg/ml ([6]; human PBMCs, 72 h, 1000 μg/ml): 70.8% | cytotoxicity at 72 h, 2000 μg/ml ([6]; human PBMCs, 72 h, 2000 μg/ml): 66.1% | cytotoxicity at 24 h, 10 μg/ml ([6]; peripheral blood mononuclear cells (PBMCs), 24 h, 10 μg/ml): -76.5% | cytotoxicity at 24 h, 50 μg/ml ([6]; peripheral blood mononuclear cells (PBMCs), 24 h, 50 μg/ml): -67.1% | cytotoxicity at 24 h, 100 μg/ml ([6]; peripheral blood mononuclear cells (PBMCs), 24 h, 100 μg/ml): -88.3% | cytotoxicity at 24 h, 500 μg/ml ([6]; peripheral blood mononuclear cells (PBMCs), 24 h, 500 μg/ml): -105% | cytotoxicity at 72 h, 10 μg/ml ([6]; peripheral blood mononuclear cells (PBMCs), 72 h, 10 μg/ml): 18.7% | cytotoxicity at 72 h, 50 μg/ml ([6]; peripheral blood mononuclear cells (PBMCs), 72 h, 50 μg/ml): 20.1% | cytotoxicity at 72 h, 100 μg/ml ([6]; peripheral blood mononuclear cells (PBMCs), 72 h, 100 μg/ml): 14% | IC50 ([7]; 24 h): 1400 µM | IC50 ([7]; 72 h): 680 µM | IC50 value ([7]; 24 h): 2000 µg/mL | cytotoxicity ([7]; 24 h, at concentrations 1 mg/ml): 40% to 53% | IC50 value ([7]; 72 h): 980 µg/mL | cytotoxicity ([7]; 72 h, concentrations >0.5 mg/ml): 33% to 66%
